Reference: PMC4556830, “The Effect of MGCD0103 on CYP450 Isoforms Activity of Rats by Cocktail Method” (BioMed Research International, 2015)

Assay: Pharmacokinetics of six cocktail probe drugs in rat plasma (UPLC-MS/MS) after 7-day MGCD0103 or saline
Conditions: for Cmax / half-life: Sprague-Dawley, rat, po; for Cmax: C max; for difference for AUC, t 1/2 between high dosage group and control group: p > 0.05
Description: The compounds were analyzed by a UPLC-MS/MS with ACQUITY I-Class UPLC and a XEVO TQD triple quadrupole mass spectrometer that was equipped with an electrospray ionization (ESI) interface (Waters Corp., Milford, MA, USA). The UPLC system included a Sample Manager with Flow-Through Needle (SM-FTN) and a Binary Solvent Manager (BSM). Data acquisition and instrument control were performed on the MassLynx 4.1 software (Waters Corp., Milford, MA, USA).
The initial mobile phase consisted of 0.1% formic acid and acetonitrile with gradient elution at a flow rate of 0.4 mL/min and an injection volume of 2 μL. […] The total run time of the analysis was 3 min.
The mass spectrometric detection was performed in a positive mode. Nitrogen was used as the cone gas (50 L/h) and desolvation gas (1000 L/h). The mass conditions were set as follows: source temperature 150°C, capillary voltage 2.5 kV, and desolvation temperature 500°C.
Forty rats (220 ± 20 g) were randomly divided into four different dosages of MGCD0103 groups (Low group, Medium group, High group, and control group with 10 rats in each group). MGCD0103 was dissolved in corn oil as suspension at three different concentrations (20, 40, and 80 mg/mL). Three different MGCD0103 groups (Low group, Medium group, and High group) were respectively given MGCD0103 20, 40, and 80 mg/kg one time by intragastric administration at every morning and last for 7 days. Control group were given saline by same administration method.
100 μL of plasma was obtained from blood sample after centrifugation at 4000 g for 10 min. In a 1.5 mL centrifuge tube, 200 μL of acetonitrile (containing 50 ng/mL IS) was added into 100 μL of collected plasma sample. […] Then supernatant (2 μL) was injected into the UPLC-MS/MS system for analysis.
Concentration of plasma probe drugs versus time was analyzed by Version 3.0 Data Analysis System (Wenzhou Medical University, China). The main pharmacokinetic parameters of the MGCD0103 group and control group were analyzed by SPSS l8.0 statistical software.

[1] = Control group: saline i.g. 7 days (no MGCD0103), then probe 10 mg/kg (tolbutamide 1 mg/kg) i.g., rat plasma, mean ± SD, n = 10
[2] = High group: MGCD0103 80 mg/kg i.g. 7 days, then probe 10 mg/kg (tolbutamide 1 mg/kg) i.g., rat plasma, mean ± SD, n = 10
[3] = Low group: MGCD0103 20 mg/kg i.g. 7 days, then probe 10 mg/kg (tolbutamide 1 mg/kg) i.g., rat plasma, mean ± SD, n = 10
[4] = Medium group: MGCD0103 40 mg/kg i.g. 7 days, then probe 10 mg/kg (tolbutamide 1 mg/kg) i.g., rat plasma, mean ± SD, n = 10
[5] = high dosage MGCD0103 group vs control
[6] = high dosage MGCD0103 group vs control, p < 0.05

| SMILES | AUC(0–t) [1] [ng/mL∗h] | AUC(0–∞) [1] [ng/mL∗h] | AUC(0–t) [2] | AUC(0–∞) [2] | AUC(0–t) [3] [ng/mL∗h] | AUC(0–∞) [3] [ng/mL∗h] | AUC(0–t) [4] [ng/mL∗h] | AUC(0–∞) [4] [ng/mL∗h] | Cmax (in vivo, 10 mg/kg) [ng/mL] | half-life (in vivo, 10 mg/kg, t 1/2) [h] | difference for AUC, t 1/2 between high dosage group and control group [5] | half-life (in vivo, t 1/2) [h] | CL [1] [L/h/kg] | CL [2] | CL [3] [L/h/kg] | CL [4] [L/h/kg] | V [1] [L/kg] | V [2] [L/kg] | V [3] [L/kg] | V [4] [L/kg] | also measured |
| --- | --- | --- | --- | --- | --- | --- | --- | --- | --- | --- | --- | --- | --- | --- | --- | --- | --- | --- | --- | --- | --- |
| CC(NC(C)(C)C)C(=O)c1cccc(Cl)c1 (stereo not shown) [Bupropion] | 144.8 ± 94.1 | 146.7 ± 95.1 | 218.2 ± 460.8 ng/mL∗h | 235.2 ± 502.8 ng/mL∗h | 282.5 ± 403.2 | 324.2 ± 506.3 | 120.4 ± 45.1 | 122.3 ± 45.2 | 157 ± 179 | 0.8 ± 0.4 | no significant difference | – | – | – | – | – | – | – | – | – | – |
| COCCc1ccc(OCC(O)CNC(C)C)cc1 (stereo not shown) [Metoprolol] | 709.2 ± 255.8 | 724.2 ± 255.8 | 1031.8 ± 1261.2 ng/mL∗h | 1046.4 ± 1258.4 ng/mL∗h | 698.1 ± 348.6 | 703.8 ± 351.6 | 836.1 ± 499.8 | 843.7 ± 498.4 | – | – | no significant difference | 0.8 ± 0.1 | – | – | – | – | – | – | – | – | – |
| COc1ccc2[nH]c([S+]([O-])Cc3ncc(C)c(OC)c3C)nc2c1 (stereo not shown) [Omeprazole] | 503.8 ± 199.4 | 528.0 ± 190.0 | 676.8 ± 1111.6 ng/mL∗h | 731.8 ± 1098.8 ng/mL∗h | 700.1 ± 910.2 | 704.9 ± 909.5 | 526.1 ± 251.2 | 539.1 ± 252.5 | 556 ± 646 | – | no significant difference | – | 21.2 ± 7.6 | 31.8 ± 19.0 L/h/kg | 29.1 ± 16.6 | 22.3 ± 10.0 | – | – | – | – | half-life (plasma, 10 mg/kg, t 1/2, Control group: saline i.g. 7 days (no MGCD0103), then probe 10 mg/kg (tolbutamide 1 mg/kg) i.g., rat plasma, mean ± SD, n = 10): 1.4 ± 1 h |
| CCOc1ccc(NC(C)=O)cc1 [Phenacetin] | 3831.2 ± 2840.9 | 3833.6 ± 2839.3 | 2869.8 ± 3189.9 ng/mL∗h | 2871.9 ± 3189.0 ng/mL∗h | 2973.6 ± 1807.0 | 2975.9 ± 1806.6 | 2910.1 ± 1758.5 | 2918.2 ± 1751.4 | 2880 ± 1630 | 0.6 ± 0.4 | no significant difference | – | – | – | – | – | – | – | – | – | – |
| C[C@]12CC[C@H]3[C@@H](CCC4=CC(=O)CC[C@@]43C)[C@@H]1CC[C@@H]2O [Testosterone] | 85.9 ± 40.6 | 89.9 ± 43.9 | 490.7 ± 1044.2 ng/mL∗h | 524.5 ± 1042.4 ng/mL∗h | 404.5 ± 908.2 | 417.2 ± 927.8 | 81.3 ± 28.8 | 106.5 ± 45.1 | – | – | no significant difference | – | 143.8 ± 89.6 | 64.9 ± 33.4^∗ L/h/kg | 104.8 ± 49.0 | 109.0 ± 43.8 | 161.1 ± 82.2 | 254.0 ± 291.0 | 259.1 ± 168.6 | 253.2 ± 204.3 | Cmax (in vivo, 10 mg/kg, Control group: saline i.g. 7 days (no MGCD0103), then probe 10 mg/kg (tolbutamide 1 mg/kg) i.g., rat plasma, mean ± SD, n = 10): 88.1 ± 54.2 ng/mL; Cmax (in vivo, 10 mg/kg, High group: MGCD0103 80 mg/kg i.g. 7 days, then probe 10 mg/kg (tolbutamide 1 mg/kg) i.g., rat plasma, mean ± SD, n = 10): 462 ± 1030 ng/mL; Cmax (in vivo, 10 mg/kg, Low group: MGCD0103 20 mg/kg i.g. 7 days, then probe 10 mg/kg (tolbutamide 1 mg/kg) i.g., rat plasma, mean ± SD, n = 10): 302 ± 631 ng/mL; Cmax (in vivo, 10 mg/kg, Medium group: MGCD0103 40 mg/kg i.g. 7 days, then probe 10 mg/kg (tolbutamide 1 mg/kg) i.g., rat plasma, mean ± SD, n = 10): 93.2 ± 75.3 ng/mL; half-life (in vivo, 10 mg/kg, t 1/2, Control group: saline i.g. 7 days (no MGCD0103), then probe 10 mg/kg (tolbutamide 1 mg/kg) i.g., rat plasma, mean ± SD, n = 10): 1 ± 0.6 h; half-life (in vivo, 10 mg/kg, t 1/2, High group: MGCD0103 80 mg/kg i.g. 7 days, then probe 10 mg/kg (tolbutamide 1 mg/kg) i.g., rat plasma, mean ± SD, n = 10): 4 ± 7.1 h; half-life (in vivo, 10 mg/kg, t 1/2, Low group: MGCD0103 20 mg/kg i.g. 7 days, then probe 10 mg/kg (tolbutamide 1 mg/kg) i.g., rat plasma, mean ± SD, n = 10): 1.7 ± 0.8 h; half-life (in vivo, 10 mg/kg, t 1/2, Medium group: MGCD0103 40 mg/kg i.g. 7 days, then probe 10 mg/kg (tolbutamide 1 mg/kg) i.g., rat plasma, mean ± SD, n = 10): 2.2 ± 2.4 h; change of CL versus control group [6]: shortened |
| CCCCNC(=O)NS(=O)(=O)c1ccc(C)cc1 [Tolbutamide] | 88701.2 ± 19274.8 | 89852.0 ± 19168.1 | 64052.9 ± 15988.6^∗ ng/mL∗h | 64353.2 ± 15998.9^∗ ng/mL∗h | 82724.8 ± 13265.9 | 83176.9 ± 13264.2 | 72448.6 ± 14850.4 | 72761.4 ± 14754.7 | – | – | – | 5.2 ± 1.2 | – | – | – | – | 0.088 ± 0.019 | 0.099 ± 0.020 | 0.090 ± 0.014 | 0.093 ± 0.010 | change of AUC(0–t) versus control group [6]: decreased; change of CL versus control group [6]: increased |
